Type in all cases: biochemical
Assay [1] deals with T1, human neutrophil elastase (Homo sapiens, UniProt P08246).
T1 construct: purchased Serva Electrophoresis, Germany
T1 sequence (P08246 30-267): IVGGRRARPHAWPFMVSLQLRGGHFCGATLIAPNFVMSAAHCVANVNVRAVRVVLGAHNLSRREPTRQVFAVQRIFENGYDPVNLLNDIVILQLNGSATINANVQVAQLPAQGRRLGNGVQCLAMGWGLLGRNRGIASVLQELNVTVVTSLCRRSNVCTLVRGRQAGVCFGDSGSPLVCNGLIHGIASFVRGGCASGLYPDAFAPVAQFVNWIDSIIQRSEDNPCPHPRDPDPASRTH
Nature of the assay: Inhibition of human neutrophil elastase (hydrolysis of MeOSuc-AAPV-pNA). The settings on record: substrate MeOSuc-AAPV-pNA 0.3 mM, enzyme 10 nM, 37° C., pH 8; read-out: Human neutrophil elastase (hNE) IC50. A digest of the protocol: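 MeOSuc-AAPV-pNA (0.3 mM) hydrolysis by 10 nM enzyme at 37° C with serially diluted peptides (1% DMSO) in 50 mM Tris pH 8, 300 mM NaCl, 0.01% Tween20. pNA release read at 405 nm over 30 minutes; IC50 from 4-parameter Hill fit.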

Assay [2] addresses T2, porcine pancreatic elastase (Sus scrofa, UniProt P00772).
T2 construct: purchased Sigma, USA
Nature of the assay: Inhibition of porcine pancreatic elastase (hydrolysis of MeOSuc-AAA-pNA). To be noted: for hNE/PPE selectivity: ratio of PPE IC50 to hNE IC50; for pIC50: substrate MeOSuc-AAA-pNA 1 mM, enzyme 15 nM, 37° C., pH8, read-out: Porcine pancreatic elastase (PPE) IC50. A digest of the protocol: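 Elastase (15 nM) incubated at 37 °C with 1 mM MeOSuc-AAA-pNA and serially diluted peptides (0.5% DMSO) in 50 mM Tris pH 8, 100 mM NaCl, 0.01% Tween20. pNA release read at 405 nm over 30 min; IC50 from 4-parameter Hill fit.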

The target of assay [3] is T3, human proteinase 3 (Homo sapiens, UniProt P24158).
T3 construct: purchased Elastin Products Company, USA
T3 sequence (P24158 28-248): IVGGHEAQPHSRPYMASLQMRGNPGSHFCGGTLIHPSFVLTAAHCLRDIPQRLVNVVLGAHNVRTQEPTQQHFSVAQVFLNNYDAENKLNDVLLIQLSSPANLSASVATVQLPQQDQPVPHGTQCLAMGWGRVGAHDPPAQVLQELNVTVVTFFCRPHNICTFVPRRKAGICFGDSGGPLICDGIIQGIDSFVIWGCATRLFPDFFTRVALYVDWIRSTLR
Nature of the assay: Inhibition of human proteinase 3 (substrate Boc-Ala-Ala-Nva-SBzl). The settings on record: for hNE/hPr3 selectivity: ratio of hPr3 IC50 to hNE IC50; for pIC50: substrate Boc-Ala-Ala-Nva-SBzl 1 mM, enzyme 10 nM, 37° C., pH7.4, read-out: Human proteinase 3 (hPr3) IC50. The procedure, abridged: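 Enzyme at 10 nM incubated at 37°C with 1 mM thiobenzyl ester substrate, 250 μM 4,4′-dithiodipyridine and serial peptide dilutions (0.5% DMSO) in Tris pH 7.4, 150 mM NaCl, 0.01% Tween20. Absorbance at 340 nm followed over 30 min; IC50 from 4-parameter Hill fit.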

Molecules are shown by their SMILES. pIC50: −log10 of the molar value. Where a SMILES comes first, the peptide text is derived from it. [ ]: non-standard residue; d: D form. Oic = O=C(O)[C@@H]1C[C@@H]2CCCC[C@@H]2N1; Gly(octyl) = CCCCCCCC[C@H](N)C(=O)O; hTyr = N[C@@H](CCc1ccc(O)cc1)C(=O)O; β3hP = O=C(O)C[C@@H]1CCCN1; Pip = O=C(O)[C@@H]1CCCCN1; Aze = O=C(O)[C@@H]1CCN1 Some results are limits rather than exact numbers.

T2 sequence (P00772 27-266): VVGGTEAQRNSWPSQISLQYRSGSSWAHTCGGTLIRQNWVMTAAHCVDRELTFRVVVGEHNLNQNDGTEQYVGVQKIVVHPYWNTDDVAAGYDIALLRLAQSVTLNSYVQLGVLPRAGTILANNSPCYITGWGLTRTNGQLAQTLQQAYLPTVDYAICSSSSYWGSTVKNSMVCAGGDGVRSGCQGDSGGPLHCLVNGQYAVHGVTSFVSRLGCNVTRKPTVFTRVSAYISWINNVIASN

Turning to `CCCCCCCC[C@@H]1NC(=O)C[C@@H]2CCCN2C(=O)[C@H]2CCCN2C(=O)[C@H]([C@@H](C)O)NC(=O)[C@H](CCCCN)NC(=O)[C@H](CCC(N)=O)NC(=O)[C@@H]2CCCN2C(=O)[C@@H]2CCCN2C(=O)[C@H]([C@@H](C)CC)NC(=O)[C@H](CO)NC(=O)[C@H](C)NC(=O)[C@H]([C@@H](C)O)NC(=O)[C@H](CCC(=O)O)NC1=O` [Example 39] (cyclo([Gly(octyl)]ETASIPPQKT[dP][β3hP])), the negative logarithm of the IC50 (pIC50) in assay [1] is 8.54. In assay [2], the hNE/PPE selectivity is on record as 30310 and the pIC50 is 4.06. For the same compound, in assay [3], the hNE/hPr3 selectivity turned out to be 24655 and the pIC50 was 4.15.

For the compound `CCCCCCCC[C@@H]1NC(=O)[C@@H](CCC(=O)O)NC(=O)[C@H]2CCCN2C(=O)[C@H]([C@@H](C)O)NC(=O)[C@H](CCCCN)NC(=O)[C@H](CCC(N)=O)NC(=O)[C@@H]2CCCN2C(=O)[C@@H]2CCCN2C(=O)[C@H]([C@@H](C)CC)NC(=O)[C@H](CO)NC(=O)[C@H](C)NC(=O)[C@H]([C@@H](C)O)NC(=O)[C@H](CCC(=O)O)NC1=O` [Example 40, Cyclo(-OctGly-Glu-Thr-Ala-Ser-Ile-Pro-Pro-Gln-Lys-Thr-^DPro-^DGlu-)] (cyclo([Gly(octyl)]ETASIPPQKT[dP][dE])), the values for the pIC50 in assay [1], in assay [2] and in assay [3] were 8.89, below 4.00 and below 4.00, respectively. Moreover, the hNE/PPE selectivity in assay [2] is on record as above 76923. Further, in assay [3], the hNE/hPr3 selectivity is above 76923.

`CC[C@H](C)[C@@H]1NC(=O)[C@H](CO)NC(=O)[C@H](C)NC(=O)[C@H]([C@@H](C)O)NC(=O)[C@H](C(C)C)NC(=O)[C@H](CCCNC(=N)N)NC(=O)[C@@H]2CCCN2C(=O)[C@H]2CCCN2C(=O)[C@H]([C@@H](C)O)NC(=O)[C@H](CCCCN)NC(=O)[C@H](CCC(N)=O)NC(=O)[C@@H]2C[C@@H]3CCCC[C@@H]3N2C(=O)[C@@H]2CCCN2C1=O` [Example 41] (cyclo(RVTASIP[Oic]QKT[dP]P)): in assay [1], the pIC50 was 8.10. In assay [2], the hNE/PPE selectivity is above 12658 and the pIC50 was below 4.00. Moreover, in assay [3], the hNE/hPr3 selectivity is given as above 12658 and the negative logarithm of the IC50 (pIC50) was below 4.00.

Turning to `CC[C@H](C)[C@@H]1NC(=O)[C@H](CO)NC(=O)[C@H](C)NC(=O)[C@H]([C@@H](C)O)NC(=O)[C@H](CCc2ccc(O)cc2)NC(=O)[C@H](CCCNC(=N)N)NC(=O)[C@@H]2CCCN2C(=O)[C@H]2CCCN2C(=O)[C@H]([C@@H](C)O)NC(=O)[C@H](CCCCN)NC(=O)[C@H](CCC(N)=O)NC(=O)[C@@H]2C[C@@H]3CCCC[C@@H]3N2C(=O)[C@@H]2CCCN2C1=O` [Example 42] (cyclo(R[hTyr]TASIP[Oic]QKT[dP]P)), the pIC50 in assay [1] is 8.32. In addition, in assay [2], the hNE/PPE selectivity is listed as above 20833 and the negative-log IC50 (pIC50) is below 4.00. For the same compound, in assay [3], the hNE/hPr3 selectivity was above 20833 and the negative-log IC50 (pIC50) was below 4.00.

Turning to `CC[C@H](C)[C@@H]1NC(=O)[C@H](CO)NC(=O)[C@H](C)NC(=O)[C@H]([C@@H](C)O)NC(=O)[C@H](CCc2ccc(O)cc2)NC(=O)[C@H](CCCNC(=N)N)NC(=O)[C@H](CCC(=O)O)NC(=O)[C@H]2CCCN2C(=O)[C@H]([C@@H](C)O)NC(=O)[C@H](CCCCN)NC(=O)[C@H](CCC(N)=O)NC(=O)[C@@H]2C[C@@H]3CCCC[C@@H]3N2C(=O)[C@@H]2CCCN2C1=O` [Example 43, Cyclo(-Arg-hTyr-Thr-Ala-Ser-Ile-Pro-Oic-Gln-Lys-Thr-^DPro-Glu-)] (cyclo(R[hTyr]TASIP[Oic]QKT[dP]E)), in assay [1], the pIC50 was 8.57. Also, in assay [2], the hNE/PPE selectivity was above 237037 and the pIC50 is below 4.00. In assay [3], the hNE/hPr3 selectivity was above 237037 and the pIC50 is below 4.00.

For `CC[C@H](C)[C@@H]1NC(=O)[C@H](CO)NC(=O)[C@H](C)NC(=O)[C@H]([C@@H](C)O)NC(=O)[C@H](C(C)C)NC(=O)[C@H](CCCNC(=N)N)NC(=O)[C@H](CCC(=O)O)NC(=O)[C@H]2CCCN2C(=O)[C@H]([C@@H](C)O)NC(=O)[C@H](CCCCN)NC(=O)[C@H](CCC(N)=O)NC(=O)[C@@H]2C[C@@H]3CCCC[C@@H]3N2C(=O)[C@@H]2CCCN2C1=O` [Example 44, Cyclo(-Arg-Val-Thr-Ala-Ser-Ile-Pro-Oic-Gln-Lys-Thr-^DPro-Glu-)] (cyclo(RVTASIP[Oic]QKT[dP]E)), the pIC50 was 8.02 in assay [1], below 4.00 in assay [2] and below 4.00 in assay [3]. Also, the hNE/PPE selectivity in assay [2] is listed as above 10417. Besides, in assay [3], the hNE/hPr3 selectivity was above 10417.

Take `CCCCCCCC[C@@H]1NC(=O)[C@@H]2CCCN2C(=O)[C@H]2CCCN2C(=O)[C@H]([C@@H](C)O)NC(=O)[C@H](CCCCN)NC(=O)[C@H](CCC(N)=O)NC(=O)[C@@H]2CCCCN2C(=O)[C@@H]2CCCN2C(=O)[C@H]([C@@H](C)CC)NC(=O)[C@H](CO)NC(=O)[C@H](C)NC(=O)[C@H]([C@@H](C)O)NC(=O)[C@H](CCC(=O)O)NC1=O` [Example 45, Cyclo(-OctGly-Glu-Thr-Ala-Ser-Ile-Pro-Pip-Gln-Lys-Thr-^DPro-Pro-)] (cyclo([Gly(octyl)]ETASIP[Pip]QKT[dP]P)): the pIC50 in assay [1] is 8.15; in assay [2], 5.64; in assay [3] it was 6.05. Moreover, in assay [2], the hNE/PPE selectivity turned out to be 324. Further, the hNE/hPr3 selectivity in assay [3] is reported as 127.

As to `CCCCCCCC[C@@H]1NC(=O)[C@@H]2CCCN2C(=O)[C@H]2CCCN2C(=O)[C@H]([C@@H](C)O)NC(=O)[C@H](CCCCN)NC(=O)[C@H](CCC(N)=O)NC(=O)[C@@H]2CCN2C(=O)[C@@H]2CCCN2C(=O)[C@H]([C@@H](C)CC)NC(=O)[C@H](CO)NC(=O)[C@H](C)NC(=O)[C@H]([C@@H](C)O)NC(=O)[C@H](CCC(=O)O)NC1=O` [Example 46, Cyclo(-OctGly-Glu-Thr-Ala-Ser-Ile-Pro-Azt-Gln-Lys-Thr-^DPro-Pro-)] (cyclo([Gly(octyl)]ETASIP[Aze]QKT[dP]P)), the pIC50 in assay [1] was 8.15; in assay [2] it was 5.72; in assay [3], 5.66. In addition, the hNE/PPE selectivity in assay [2] worked out at 268. For the same compound, in assay [3], the hNE/hPr3 selectivity was 310.

As to `CCCCCCCC[C@@H]1NC(=O)[C@@H]2CCCN2C(=O)[C@H]2CCCN2C(=O)[C@H](CO)NC(=O)[C@H](CCCCN)NC(=O)[C@H](CCC(N)=O)NC(=O)[C@@H]2CCCN2C(=O)[C@@H]2CCCN2C(=O)[C@H]([C@@H](C)CC)NC(=O)[C@H](CO)NC(=O)[C@H](C)NC(=O)[C@H]([C@@H](C)O)NC(=O)[C@H](CCc2ccc(O)cc2)NC1=O` [Example 47] (cyclo([Gly(octyl)][hTyr]TASIPPQKS[dP]P)), the pIC50 in assay [1] was 8.85. Further, in assay [2], the hNE/PPE selectivity is given as 357 and the pIC50 is 6.30. In assay [3], the hNE/hPr3 selectivity is 714 and the pIC50 is 6.00.

As for `CCCCCCCC[C@@H]1NC(=O)[C@@H]2CCCN2C(=O)[C@H]2CCCN2C(=O)[C@H](CC(N)=O)NC(=O)[C@H](CCCCN)NC(=O)[C@H](CCC(N)=O)NC(=O)[C@@H]2CCCN2C(=O)[C@@H]2CCCN2C(=O)[C@H]([C@@H](C)CC)NC(=O)[C@H](CO)NC(=O)[C@H](C)NC(=O)[C@H]([C@@H](C)O)NC(=O)[C@H](CCc2ccc(O)cc2)NC1=O` [Example 48] (cyclo([Gly(octyl)][hTyr]TASIPPQKN[dP]P)), the pIC50 in assay [1] was 8.57. Further, in assay [2], the hNE/PPE selectivity is 148 and the negative-log IC50 (pIC50) was 6.40. Further, in assay [3], the hNE/hPr3 selectivity is 407 and the pIC50 was 5.96.

Consider `CC[C@H](C)[C@@H]1NC(=O)[C@H](CO)NC(=O)[C@H](C)NC(=O)[C@H]([C@@H](C)O)NC(=O)[C@H](CCc2ccc(O)cc2)NC(=O)[C@H](CCCNC(=N)N)NC(=O)[C@H](CCC(=O)O)NC(=O)[C@H]2CCCN2C(=O)[C@H]([C@@H](C)O)NC(=O)[C@H](CCCCN)NC(=O)[C@H](CCC(N)=O)NC(=O)[C@@H]2CCCN2C(=O)[C@@H]2CCCN2C1=O` [Example 49] (cyclo(R[hTyr]TASIPPQKT[dP]E)), for which the pIC50 in assay [1] is 7.82. In assay [2], the hNE/PPE selectivity stood at 2490 and the negative-log IC50 (pIC50) is 4.42. For the same compound, in assay [3], the hNE/hPr3 selectivity turned out to be 627 and the negative-log IC50 (pIC50) was 5.02.

The values are drawn from patent US10273267B2, “Beta-hairpin peptidomimetics as selective elastase inhibitors” (POLYPHOR AG, priority 2013, dated 2019).
